Measurements: patent publication US20240018119A1, “CARBOXAMIDE DERIVATIVE AND PHARMACEUTICAL COMPOSITION COMPRISING SAME AS ACTIVE INGREDIENT FOR PREVENTING OR TREATING MENTAL ILLNESS” (DAEGU-GYEONGBUK MEDICAL INNOVATION FOUNDATION, priority 2020, published 2024)

Assays:
serotonin transporter = target: T1, serotonin transporter (Homo sapiens, UniProt P31645); experiment: Serotonin reuptake inhibition in transporter-transfected HEK-293 cells ([3H]-5-HT); type: cell-based; conditions: for Triple reuptake inhibition (Ratio %) SERT: compound 1 μM, [3H]-5-HT, relative to control without compound (100%), lower = more inhibition; for IC50: concentration at which Ratio % is 50%, 6 concentrations 1 nM to 1 μM, read-out: Triple reuptake inhibition (IC50, μM) SERT
T1 construct: expressed in transfected cells; host or cells: HEK-293

male ICR mice [1] = experiment: Hyperactivity inhibitory effect, open field test (EthoVision) in MK801-treated mice; type: in vivo; conditions: for distance moved: vehicle about 7000 cm; for movement duration: vehicle about 880 s
Method: In order to evaluate the hyperactivity inhibitory effect of the compounds of Example 35 and Example 66 according to the present invention or Comparative Example 1, an experiment was performed as follows, and the results are shown in FIG. 1. An open field test is an experimental method utilized for searching for excess and decline in motor function, calmness, excitement, avoidance degree and toxicity.
The observation of the hyperactivity and behavior analysis of animals were conducted using an EthoVisiorn System (Noldus IT b.v., Netherlands) that is a type of an open field test. The animals used for the experiment were male ICR mice of 4 weeks old. To induce hyperactivity, animal models intraperitoneally administered with 0.15 mg/kg of MK801 (drug name: dizocilpine) were used, and the compounds of Example 35, example 66 or Comparative Example 1 was intraperitoneally administered by 5 mg/kg, 30 minutes ago the administration of MK801. Male ICP mice administered with 10% DMSO and 10% Tween-80 as the solvents dissolving a drug were considered a vehicle, and male ICR mice administered with MK801 […] with the Example Compound or Comparative Compound were considered a positive control. After that, in the center of a test box (40×40×30 cm) manufactured using black acryl, the mice under test were put and allowed to fit for 15 minutes, and behavior patterns were observed, recorded and analyzed for 15 minutes. Comparative analysis was conducted by measuring distance moved and movement duration.

dopamine transporter = target: T2, dopamine transporter (Homo sapiens, UniProt Q01959); experiment: Dopamine reuptake inhibition in transporter-transfected HEK-293 cells ([3H]-DA); type: cell-based; conditions: for Triple reuptake inhibition (Ratio %) DAT: compound 1 μM, 20-30 nM [3H]-DA, relative to control without compound (100%), lower = more inhibition; for IC50: concentration at which Ratio % is 50%, 6 concentrations 1 nM to 1 μM, read-out: Triple reuptake inhibition (IC50, μM) DAT
T2 construct: expressed in transfected cells; host or cells: HEK-293
How it was run: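 HEK-293 cells transfected with human DAT cDNA; compound preincubated 15 min at 37 °C in uptake buffer, then buffer containing 20-30 nM [3H]-DA added for 5 min at 37 °C. After ice-cold washes and SDS lysis, radioactivity expressed as % of untreated control; IC50 from six concentrations (1 nM–1 μM).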

[2] = target: T3, norepinephrine transporter (Homo sapiens, UniProt P23975); experiment: Norepinephrine reuptake inhibition in transporter-transfected HEK-293 cells ([3H]-NE); type: cell-based; conditions: for Triple reuptake inhibition (Ratio %) NET: compound 1 μM, [3H]-NE, relative to control without compound (100%), lower = more inhibition; for IC50: concentration at which Ratio % is 50%, 6 concentrations 1 nM to 1 μM, read-out: Triple reuptake inhibition (IC50, μM) NET
T3 construct: expressed in transfected cells; host or cells: HEK-293

male ICR mice [3] = experiment: Evaluation on causing sleep disorder, pentobarbital sodium-induced sleep in mice; type: in vivo; conditions: then pentobarbital sodium 42 mg/kg i.p.; for sleep onset time: vehicle about 225 seconds; for sleep duration: vehicle about 2100 seconds
Method: In order to evaluate the causing of sleep disorder or not as the side effect of the compound of Example 35, Example 66 according to the present invention or Comparative Example 1, an experiment was performed as follows, and the results are shown in FIG. 2. Pentobarbital sodium is a drug inducing sleep, and by observing the behavior of sleep-induced animals using the drug, the causing of sleep disorder or not can be evaluated. In addition, caffeine is well-known as a drug causing sleep disorder, and diazepam is well-known as a sleeping pill having sleep retention effect.
As experimental animals, male ICR mice of 3 weeks old were prepared and, 8 mice per group were prepared. A vehicle taking only water, groups intraperitoneally administered once a day for 5 days with 10 mg/kg of caffeine, 2 mg/kg of diazepam, 10 mg/kg of Comparative Example 1, and 10 mg/kg of Example 35 and 10 mg/kg of Example 66, were prepared. […], 42 mg/kg of pentobarbital sodium was intraperitoneally administered to the mice of each group to Induce sleep.
After treatment with pentobarbital sodium, if a mouse was turned upside down showing Its belly, it was considered sleep, and if a mouse changed posture while showing its back, it was considered to wake up completely. Sleep onset time and sleep duration were confirmed.

[4] = 5 mg/kg intraperitoneally 30 minutes before MK801 0.15 mg/kg i.p.
[5] = 5 mg/kg intraperitoneally 30 minutes before MK801 0.15 mg/kg i.p., observed 15 minutes, MK801 only about 14000 cm
[6] = 5 mg/kg intraperitoneally 30 minutes before MK801 0.15 mg/kg i.p., MK801 only about 1070 s
[7] = 10 mg/kg intraperitoneally once a day for 5 days
[8] = 2 mg/kg intraperitoneally once a day for 5 days
[9] = positive control treated with only MK801 0.15 mg/kg i.p.

T3 sequence (P23975 whole entry, species assumed): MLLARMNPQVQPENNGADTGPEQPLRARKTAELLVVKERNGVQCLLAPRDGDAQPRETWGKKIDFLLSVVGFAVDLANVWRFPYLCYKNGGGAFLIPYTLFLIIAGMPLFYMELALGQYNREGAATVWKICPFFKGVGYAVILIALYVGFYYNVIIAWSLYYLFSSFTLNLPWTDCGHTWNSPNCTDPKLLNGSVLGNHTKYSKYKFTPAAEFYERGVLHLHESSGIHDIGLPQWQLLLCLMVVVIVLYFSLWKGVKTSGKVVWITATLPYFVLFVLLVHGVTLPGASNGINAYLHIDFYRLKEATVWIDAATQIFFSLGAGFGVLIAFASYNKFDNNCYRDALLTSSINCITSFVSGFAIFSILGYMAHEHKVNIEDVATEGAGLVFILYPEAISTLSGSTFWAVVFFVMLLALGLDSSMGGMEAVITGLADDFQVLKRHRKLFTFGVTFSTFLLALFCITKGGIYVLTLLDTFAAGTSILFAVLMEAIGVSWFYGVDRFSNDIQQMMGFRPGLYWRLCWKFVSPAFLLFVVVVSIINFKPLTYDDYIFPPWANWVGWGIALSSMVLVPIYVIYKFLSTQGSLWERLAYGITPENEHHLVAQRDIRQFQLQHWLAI
T1 sequence (P31645 whole entry): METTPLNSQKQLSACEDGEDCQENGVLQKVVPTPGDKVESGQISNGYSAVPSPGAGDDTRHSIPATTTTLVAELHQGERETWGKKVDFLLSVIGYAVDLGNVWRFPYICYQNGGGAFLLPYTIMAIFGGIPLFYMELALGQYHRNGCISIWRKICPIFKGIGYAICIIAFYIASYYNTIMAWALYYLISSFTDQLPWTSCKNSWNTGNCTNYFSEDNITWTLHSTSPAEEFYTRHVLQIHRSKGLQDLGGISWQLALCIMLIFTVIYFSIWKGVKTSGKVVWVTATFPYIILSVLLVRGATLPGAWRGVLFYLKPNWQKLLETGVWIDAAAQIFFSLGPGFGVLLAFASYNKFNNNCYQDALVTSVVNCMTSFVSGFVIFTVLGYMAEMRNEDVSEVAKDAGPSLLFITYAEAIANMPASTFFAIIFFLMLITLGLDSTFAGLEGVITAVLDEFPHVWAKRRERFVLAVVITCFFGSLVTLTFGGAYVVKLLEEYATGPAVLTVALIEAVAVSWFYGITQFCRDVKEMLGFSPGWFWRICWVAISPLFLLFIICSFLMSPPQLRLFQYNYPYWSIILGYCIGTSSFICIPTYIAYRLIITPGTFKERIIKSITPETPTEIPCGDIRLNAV
T2 sequence (Q01959 whole entry): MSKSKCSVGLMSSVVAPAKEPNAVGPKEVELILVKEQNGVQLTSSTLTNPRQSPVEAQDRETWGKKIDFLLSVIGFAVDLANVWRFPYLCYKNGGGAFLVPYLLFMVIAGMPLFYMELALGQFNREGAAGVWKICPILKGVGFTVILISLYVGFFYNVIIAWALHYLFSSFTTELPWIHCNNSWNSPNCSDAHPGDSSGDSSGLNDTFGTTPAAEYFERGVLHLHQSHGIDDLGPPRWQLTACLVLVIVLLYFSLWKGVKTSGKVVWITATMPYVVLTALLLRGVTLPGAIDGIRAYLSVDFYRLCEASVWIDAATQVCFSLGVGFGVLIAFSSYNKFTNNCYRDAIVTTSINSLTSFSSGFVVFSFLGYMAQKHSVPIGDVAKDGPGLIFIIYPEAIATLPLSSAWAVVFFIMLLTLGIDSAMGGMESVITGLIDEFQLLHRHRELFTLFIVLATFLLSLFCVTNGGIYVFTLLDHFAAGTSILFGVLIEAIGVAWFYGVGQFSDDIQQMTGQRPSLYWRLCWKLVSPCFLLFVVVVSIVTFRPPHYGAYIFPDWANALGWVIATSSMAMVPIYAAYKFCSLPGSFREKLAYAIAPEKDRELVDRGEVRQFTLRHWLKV

| Structure (SMILES) | Triple reuptake inhibition (Ratio %) SERT (serotonin transporter) [%] | IC50 (serotonin transporter) [µM] | Triple reuptake inhibition (Ratio %) DAT (dopamine transporter) [%] | IC50 (dopamine transporter) [µM] | Triple reuptake inhibition (Ratio %) NET [2] [%] | IC50 [2] [µM] | also measured |
| --- | --- | --- | --- | --- | --- | --- | --- |
| O=C(NCCN1CCC(Cc2ccccc2)CC1)c1cc2cc(O)ccc2[nH]1 [Example 66, N-(2-(4-benzylpiperidin-1-yl)ethyl)-5-hydroxy-1H-Indol-2-carboxamide] | 38.79 | 0.265 | 8.78 | 0.036 | 21.59 | 0.167 | hyperactivity of the mice induced with MK801 (male ICR mice [1]; [4]): significantly inhibited; distance moved (male ICR mice [1]; [5]): about 8600 cm; movement duration (male ICR mice [1]; [6]): about 880 seconds |
| O=C(NCCN1CCC(Cc2ccccc2)CC1)c1cc2ccccc2[nH]1 [Comparative Example 1, N-(2-(4-benzylpiperidin-1-yl)ethyl)-1H-indol-2-carboxamide, reference compound] |  | 5.35 |  | 4.18 |  | 0.524 | hyperactivity of the mice induced with MK801 (male ICR mice [1]; [4]): not inhibited; distance moved (male ICR mice [1]; [5]): about 13400 cm; movement duration (male ICR mice [1]; [6]): about 1100 seconds; sleep disorder as side effect (male ICR mice [3]; [7]): induced sleep disorder; sleep onset time (male ICR mice [3]; [7]): about 300 seconds; sleep duration (male ICR mice [3]; [7]): about 1100 seconds |
| CN1C(=O)CN=C(c2ccccc2)c2cc(Cl)ccc21 [diazepam] |  |  |  |  |  |  | sleep onset time (male ICR mice [3]; [8]): about 170 seconds; sleep duration (male ICR mice [3]; [8]): about 2900 seconds |
| COc1cc2cc(C(=O)NCCN3CCC(Cc4ccccc4)CC3)[nH]c2cc1OC [Example 35, N-(2-(4-benzylpiperidin-1-yl)ethyl)-5,6-dimethoxy-1H-indol-2-carboxamide] | 36.24 | 0.415 | 7.77 | 0.248 | 16.10 | 0.386 | hyperactivity of the mice induced with MK801 (male ICR mice [1]; [4]): significantly inhibited; distance moved (male ICR mice [1]; [5]): about 10000 cm; movement duration (male ICR mice [1]; [6]): about 950 seconds |
| C[C@]12N[C@H](Cc3ccccc31)c1ccccc12 [MK801, reference compound] |  |  |  |  |  |  | movement duration (male ICR mice [1]; [9]): about 1070 seconds; distance moved (male ICR mice [1]; [9]): about 14000 cm |
| O=C(NCCN1CCC(c2ccc(Cl)c(Cl)c2)CC1)c1cc2ccccc2[nH]1 [Example 28, N-(2-(4-(3,4-dichlorophenyl)piperidin-1-yl)ethyl)-1H-indol-2-carb oxamide] | 82.81 |  | 37.16 | 0.225 | 88.77 |  |  |
| O=C(NCCN1CCN(c2ccc(Cl)c(Cl)c2)CC1)c1ccc(Cl)c(Cl)c1 [Example 14, 3,4-dichloro-N-(2-(4-(3,4-dichlorphenyl)piperazin-1-yl)ethyl)benzamide] | 88.61 |  | 94.20 |  | 105.49 |  |  |
| CC(CN1CCC(Cc2ccccc2)CC1)NC(=O)c1cc2ccccc2[nH]1 (centres unmarked) [Example 43, N-(1-(4-benzylpiperidin-1-yl)propan-2-yl)-1H-indol-2-carboxamide] | 81.76 |  | 30.29 |  | 56.98 |  |  |
| O=C(NCCN1CCC(Cc2ccccc2)CC1)c1cc2cc(OCc3ccccc3)ccc2[nH]1 [Example 46, 5-(benzyloxy)-N-(2-(4-benzylpiperidin-1-yl)ethyl)-1H-indol-2-carboxamide] | 42.91 |  | 77.49 |  | 110.55 |  |  |
| O=C(NCCN1CCC(c2c[nH]c3ccccc23)CC1)c1cc2ccccc2[nH]1 [Example 37, N-(2-(4-(1H-indol-3-yl)piperidin-1-yl)ethyl)-1H-indol-2-carboxamide] | 32.42 |  | 38.64 |  | 76.15 |  |  |
| O=C(O)c1ccc2[nH]c(C(=O)NCCN3CCC(Cc4ccccc4)CC3)cc2c1 [Example 81, 2-((2-(4-benzylpiperidin-1-yl)-ethyl)carbamoyl)-1H-indol-5-carboxylic acid] | 87.86 |  | 70.22 |  | 95.95 |  |  |
| O=C(NCCN1CCC(Cc2ccccc2)CC1)c1c[nH]c2ccccc12 [Example 73, N-(2-(4-benzylpiperidin-1-yl)ethyl)-1H-indol-3-carboxamide] | 88.39 |  | 33.58 |  | 57.01 |  |  |
| O=C(NCCN1CCC(Cc2ccccc2)CC1)c1nc2ccccc2[nH]1 [Example 61, N-(2-(4-benzylpiperidin-1-yl)ethyl)-1H-benzo[d]imidazol-2-carboxamide] | 62.21 | 2.28 | 32.78 | 0.97 | 73.75 | 3.17 |  |
